Experimental data from BindingDB's records for doi:10.1016/j.bmcl.2018.08.004 (Beijing Institute of Pharmacology and Toxicology, 2018).
Bridge positions count the residues as written; N and C are the ends. Square brackets hold non-standard residues; d marks the D form. Peptide text beside a SMILES is read from it. Phe(4-Br) = N[C@@H](Cc1ccc(Br)cc1)C(=O)O; Phe(4-Cl) = N[C@@H](Cc1ccc(Cl)cc1)C(=O)O; 1Nal = N[C@@H](Cc1cccc2ccccc12)C(=O)O; 2Nal = N[C@@H](Cc1ccc2ccccc2c1)C(=O)O; Phe(2-F) = N[C@@H](Cc1ccccc1F)C(=O)O; Cit = NC(=O)NCCC[C@H](N)C(=O)O; NMeA = CN[C@@H](C)C(=O)O; Sar = CNCC(=O)O

Test: Agonist activity at EPO receptor in human TF1 cells assessed as induction of cell proliferation after 48 hrs by MTT assay

EC50 [nM] | Compound
540 | CC[C@H](C)[C@@H]1NC(=O)[C@@H]2CCCN2C(=O)CNC(=O)[C@H](CCSC)NC(=O)[C@H](Cc2cnc[nH]2)NC(=O)[C@@H](NC(=O)[C@H](C)NC(=O)[C@H](Cc2ccc(O)cc2)NC(=O)[C@H](CC(C)C)NC(=O)CNC(=O)CNC(C)=O)CSSC[C@@H](C(=O)N[C@@H](CCC(N)=O)C(=O)N2CCC[C@H]2C(=O)N[C@@H](CC(C)C)C(=O)N[C@@H](CCCNC(=N)N)C(=O)N(C)CC(=O)N[C@@H](CCCCN)C(N)=O)NC(=O)[C@H](C(C)C)NC(=O)[C@H](Cc2ccccc2F)NC(=O)[C@H]([C@@H](C)O)NC1=O (Ac-GGLYACHMGPIT[Phe(2-F)]VCQPLR[Sar]K-NH2; disulfide 6-15)
540 | CC[C@H](C)[C@@H]1NC(=O)[C@@H]2CCCN2C(=O)CNC(=O)[C@H](CCSC)NC(=O)[C@H](Cc2cnc[nH]2)NC(=O)[C@@H](NC(=O)[C@H](C)NC(=O)[C@H](Cc2ccc(O)cc2)NC(=O)[C@H](CC(C)C)NC(=O)CNC(=O)CNC(C)=O)CSSC[C@@H](C(=O)N[C@@H](CCC(N)=O)C(=O)N2CCC[C@H]2C(=O)N[C@@H](CC(C)C)C(=O)N[C@@H](CCCNC(=N)N)C(=O)N(C)CC(=O)N[C@@H](CCCCN)C(N)=O)NC(=O)[C@H](C(C)C)NC(=O)[C@H](Cc2ccc3ccccc3c2)NC(=O)[C@H]([C@@H](C)O)NC1=O (Ac-GGLYACHMGPIT[2Nal]VCQPLR[Sar]K-NH2; disulfide 6-15)
540 | CC[C@H](C)[C@@H]1NC(=O)[C@@H]2CCCN2C(=O)CNC(=O)[C@H](CCSC)NC(=O)[C@H](Cc2cnc[nH]2)NC(=O)[C@@H](NC(=O)[C@H](C)NC(=O)[C@H](Cc2ccc(O)cc2)NC(=O)[C@H](CC(C)C)NC(=O)CNC(=O)CNC(C)=O)CSSC[C@@H](C(=O)N[C@@H](CCC(N)=O)C(=O)N2CCC[C@H]2C(=O)N[C@@H](CC(C)C)C(=O)N[C@@H](CCCNC(=N)N)C(=O)N(C)CC(=O)N[C@@H](CCCCN)C(N)=O)NC(=O)[C@H](C(C)C)NC(=O)[C@H](Cc2ccc(Br)cc2)NC(=O)[C@H]([C@@H](C)O)NC1=O (Ac-GGLYACHMGPIT[Phe(4-Br)]VCQPLR[Sar]K-NH2; disulfide 6-15)
12 | CC[C@H](C)[C@@H]1NC(=O)[C@@H]2CCCN2C(=O)CNC(=O)[C@H](CCSC)NC(=O)[C@H](Cc2cnc[nH]2)NC(=O)[C@@H](NC(=O)[C@H](C)NC(=O)[C@H](Cc2ccc(O)cc2)NC(=O)[C@H](CC(C)C)NC(=O)CNC(=O)CNC(C)=O)CSSC[C@@H](C(=O)N[C@@H](CCC(N)=O)C(=O)N(C)[C@@H](C)C(=O)N[C@@H](CC(C)C)C(=O)N[C@@H](CCCNC(=N)N)C(=O)N(C)CC(=O)N[C@@H](CCCCN)C(N)=O)NC(=O)[C@H](C(C)C)NC(=O)[C@H](Cc2cccc3ccccc23)NC(=O)[C@H]([C@@H](C)O)NC1=O (Ac-GGLYACHMGPIT[1Nal]VCQ[NMeA]LR[Sar]K-NH2; disulfide 6-15)
42 | CC[C@H](C)[C@@H]1NC(=O)[C@@H]2CCCN2C(=O)CNC(=O)[C@H](CCSC)NC(=O)[C@H](Cc2cnc[nH]2)NC(=O)[C@@H](NC(=O)[C@H](C)NC(=O)[C@H](Cc2ccc(O)cc2)NC(=O)[C@H](CC(C)C)NC(=O)CNC(=O)CNC(C)=O)CSSC[C@@H](C(=O)N[C@@H](CCC(N)=O)C(=O)N(C)CC(=O)N[C@@H](CC(C)C)C(=O)N[C@@H](CCCNC(=N)N)C(=O)N(C)CC(=O)N[C@@H](CCCCN)C(N)=O)NC(=O)[C@H](C(C)C)NC(=O)[C@H](Cc2cccc3ccccc23)NC(=O)[C@H]([C@@H](C)O)NC1=O (Ac-GGLYACHMGPIT[1Nal]VCQ[Sar]LR[Sar]K-NH2; disulfide 6-15)
31 | CC[C@H](C)[C@@H]1NC(=O)CN(C)C(=O)CNC(=O)[C@H](CCSC)NC(=O)[C@H](Cc2cnc[nH]2)NC(=O)[C@@H](NC(=O)[C@H](C)NC(=O)[C@H](Cc2ccc(O)cc2)NC(=O)[C@H](CC(C)C)NC(=O)CNC(=O)CNC(C)=O)CSSC[C@@H](C(=O)N[C@@H](CCC(N)=O)C(=O)N2CCC[C@H]2C(=O)N[C@@H](CC(C)C)C(=O)N[C@@H](CCCNC(=N)N)C(=O)N(C)CC(=O)N[C@@H](CCCCN)C(N)=O)NC(=O)[C@H](C(C)C)NC(=O)[C@H](Cc2cccc3ccccc23)NC(=O)[C@H]([C@@H](C)O)NC1=O (Ac-GGLYACHMG[Sar]IT[1Nal]VCQPLR[Sar]K-NH2; disulfide 6-15)
240 | CC[C@H](C)[C@@H]1NC(=O)[C@@H]2CCCN2C(=O)CNC(=O)[C@H](CCSC)NC(=O)[C@H](Cc2cnc[nH]2)NC(=O)[C@@H](NC(=O)[C@H](C)NC(=O)[C@H](Cc2ccc(O)cc2)NC(=O)[C@H](CC(C)C)NC(=O)CNC(=O)CNC(C)=O)CSSC[C@@H](C(=O)N[C@@H](CCC(N)=O)C(=O)N2CCC[C@H]2C(=O)N[C@@H](CC(C)C)C(=O)N[C@@H](CCCNC(=N)N)C(=O)N(C)CC(=O)N[C@@H](CCCCN)C(N)=O)NC(=O)[C@H](C(C)C)NC(=O)[C@H](Cc2ccc(Cl)cc2)NC(=O)[C@H]([C@@H](C)O)NC1=O (Ac-GGLYACHMGPIT[Phe(4-Cl)]VCQPLR[Sar]K-NH2; disulfide 6-15)
11 | CC[C@H](C)[C@@H]1NC(=O)[C@@H]2CCCN2C(=O)CNC(=O)[C@H](CCSC)NC(=O)[C@H](Cc2cnc[nH]2)NC(=O)[C@@H](NC(=O)[C@H](C)NC(=O)[C@H](Cc2ccc(O)cc2)NC(=O)[C@H](CC(C)C)NC(=O)CNC(=O)CNC(C)=O)CSSC[C@@H](C(=O)N[C@@H](CCC(N)=O)C(=O)N2CCC[C@H]2C(=O)N[C@@H](CC(C)C)C(=O)N[C@@H](CCCNC(=N)N)C(=O)N(C)CC(=O)N[C@@H](CCCCN)C(N)=O)NC(=O)[C@H](C(C)C)NC(=O)[C@H](Cc2cccc3ccccc23)NC(=O)[C@H]([C@@H](C)O)NC1=O
31 | CC[C@H](C)[C@@H]1NC(=O)[C@@H]2CCCN2C(=O)CNC(=O)[C@H](CCSC)NC(=O)[C@H](Cc2cnc[nH]2)NC(=O)[C@@H](NC(=O)[C@H](C)NC(=O)[C@H](Cc2ccc(O)cc2)NC(=O)[C@H](CC(C)C)NC(=O)CNC(=O)CNC(C)=O)CSSC[C@@H](C(=O)N[C@@H](CCC(N)=O)C(=O)N2CCC[C@H]2C(=O)N[C@@H](CC(C)C)C(=O)N[C@@H](CCCNC(N)=O)C(=O)N(C)CC(=O)N[C@@H](CCCCN)C(N)=O)NC(=O)[C@H](C(C)C)NC(=O)[C@H](Cc2cccc3ccccc23)NC(=O)[C@H]([C@@H](C)O)NC1=O (Ac-GGLYACHMGPIT[1Nal]VCQPL[Cit][Sar]K-NH2; disulfide 6-15)
26 | CC[C@H](C)[C@@H]1NC(=O)[C@H](C)N(C)C(=O)CNC(=O)[C@H](CCSC)NC(=O)[C@H](Cc2cnc[nH]2)NC(=O)[C@@H](NC(=O)[C@H](C)NC(=O)[C@H](Cc2ccc(O)cc2)NC(=O)[C@H](CC(C)C)NC(=O)CNC(=O)CNC(C)=O)CSSC[C@@H](C(=O)N[C@@H](CCC(N)=O)C(=O)N2CCC[C@H]2C(=O)N[C@@H](CC(C)C)C(=O)N[C@@H](CCCNC(=N)N)C(=O)N(C)CC(=O)N[C@@H](CCCCN)C(N)=O)NC(=O)[C@H](C(C)C)NC(=O)[C@H](Cc2cccc3ccccc23)NC(=O)[C@H]([C@@H](C)O)NC1=O (Ac-GGLYACHMG[NMeA]IT[1Nal]VCQPLR[Sar]K-NH2; disulfide 6-15)
